Literature values as cited in PubChem BioAssay AID1259409 (Chemical Carcinogenesis Research Information System (CCRIS), 2018).

Test system: rodent chemically induced tumor inhibition, incidence and multiplicity
Assay: CCRIS tumor inhibitor studies
Conditions: Route [Inhibitor]: ORAL

| SMILES | tumour outcome (control, treated, inhibition, significance) (Carcinogen: BENZO[A]PYRENE, 50-32-8, Dose [Inhibitor]: 0.03 MMOL/G OF DIET DAILY STARTING 7 D BEFORE AND CONTINUING THROUGH 3 D AFTER CARCINOGEN TREATMENT FOLLOWED BY OBSERVAT, Species: MOUSE, Strain/Sex: ICR/FEMALE, Target Tissue: Type of Lesion: FORESTOMACH: NEOPLASM, Dose [Carcinogen]: 1 MG IN 0.2 ML CORN OIL 2/WK FOR 4 WK, Promoter: NONE USED) | tumour outcome (control, treated, inhibition, significance) (Carcinogen: AZOXYMETHANE, 25843-45-2, Dose [Inhibitor]: 0, 2.5 G/L IN DRINKING WATER AD LIBITUM FOR DURATION OF STUDY (STUDY DURATION: 40 WK), Species: RAT, Strain/Sex: WISTAR/MALE, Target Tissue: Type of Lesion: INTESTINE: TUMOR, Dose [Carcinogen]: 7.4 MG/KG BW IN 0.9% SALINE 1/WK FOR 10 WK, Promoter: BOMBESIN, 31362-50-2) | tumour outcome (control, treated, inhibition, significance) (Carcinogen: AZOXYMETHANE, 25843-45-2, Dose [Inhibitor]: 0, 2.5 G/L IN DRINKING WATER FOR DURATION OF STUDY (STUDY DURATION: 45 WK), Species: RAT, Strain/Sex: WISTAR/MALE, Target Tissue: Type of Lesion: COLON: TUMOR, Dose [Carcinogen]: 7.4 MG/KG BW IN 0.9% SALINE 1/WK FOR 10 WK, Promoter: VASOACTIVE INTESTINAL PEPTIDE, 37221-79-7) | tumour outcome (control, treated, inhibition, significance) (Carcinogen: N-BUTYL-N-(4-HYDROXYBUTYL)NITROSAMINE [3817-11-6], Dose [Inhibitor]: 2 G/L IN DRINKING WATER FOR 32 WK BEGINNING 2 D POST LAST CARCINOGEN DOSE (STUDY DURATION: 36 WK), Species: RAT, Strain/Sex: F344/MALE, Target Tissue: Type of Lesion: URINARY BLADDER: CARCINOMA, Dose [Carcinogen]: 0.05% IN DRINKING WATER FOR 4 WK (STUDY DURATION: 36 WK), Promoter: NONE) | tumour outcome (control, treated, inhibition, significance) (Carcinogen: N-BUTYL-N-(4-HYDROXYBUTYL)NITROSAMINE [3817-11-6], Dose [Inhibitor]: 2 G/L IN DRINKING WATER FOR 32 WK BEGINNING 2 D POST LAST CARCINOGEN DOSE (STUDY DURATION: 36 WK), Species: RAT, Strain/Sex: F344/MALE, Target Tissue: Type of Lesion: URINARY BLADDER: CARCINOMA, Dose [Carcinogen]: 0.05% IN DRINKING WATER FOR 4 WK (STUDY DURATION: 36 WK), Promoter: SODIUM L-ASCORBATE [134-03-2]) | tumour outcome (control, treated, inhibition, significance) (Carcinogen: N-BUTYL-N-(4-HYDROXYBUTYL)NITROSAMINE [3817-11-6], Dose [Inhibitor]: 2 G/L IN DRINKING WATER FOR 32 WK BEGINNING 2 D POST LAST CARCINOGEN DOSE (STUDY DURATION: 36 WK), Species: RAT, Strain/Sex: F344/MALE, Target Tissue: Type of Lesion: URINARY BLADDER: PAPILLOMA, Dose [Carcinogen]: 0.05% IN DRINKING WATER FOR 4 WK (STUDY DURATION: 36 WK), Promoter: SODIUM L-ASCORBATE [134-03-2]) | tumour outcome (control, treated, inhibition, significance) (Carcinogen: N-METHYL-N'-NITRO-N-NITROSOGUANIDINE, 70-25-7, Dose [Inhibitor]: 0, 2.5 G/L IN DRINKING WATER BEGINNING 1 WK POST CARCINOGEN TREATMENT AND CONTINUING FOR DURATION OF STUDY (STUDY DURATI, Species: RAT, Strain/Sex: WISTAR/MALE, Target Tissue: Type of Lesion: STOMACH: ADENOCARCINOMA, Dose [Carcinogen]: 50 UG/ML IN DRINKING WATER FOR 25 WK, Promoter: BOMBESIN, 31362-50-2) | tumour outcome (control, treated, inhibition, significance) (Carcinogen: N-METHYL-N'-NITRO-N-NITROSOGUANIDINE, 70-25-7, Dose [Inhibitor]: 0, 2.5 G/L IN DRINKING WATER FOR 26 WK BEGINNING 1 WK POST CARCINOGEN TREATMENT (STUDY DURATION: 52 WK), Species: RAT, Strain/Sex: WISTAR/MALE, Target Tissue: Type of Lesion: GLANDULAR STOMACH: ADENOCARCINOMA, Dose [Carcinogen]: 25 UG/ML IN DRINKING WATER FOR 25 WK, Promoter: SODIUM CHLORIDE, 7647-14-5) | tumour outcome (control, treated, inhibition, significance) (Carcinogen: N-METHYL-N'-NITRO-N-NITROSOGUANIDINE, 70-25-7, Dose [Inhibitor]: 0, 25 G/L IN DRINKING WATER FOR 26 WK BEGINNING 1/WK POST CARCINOGEN TREATMENT (STUDY DURATION: 52 WK), Species: RAT, Strain/Sex: WISTAR/MALE, Target Tissue: Type of Lesion: STOMACH: ADENOCARCINOMA, Dose [Carcinogen]: 25 UG/ML IN DRINKING WATER FOR 25 WK, Promoter: TYROSINE METHYL ESTER, 1080-06-4) |
| --- | --- | --- | --- | --- | --- | --- | --- | --- | --- |
| CC(C)(C)c1cc(COCc2cc(C(C)(C)C)c(O)c(C(C)(C)C)c2)cc(C(C)(C)C)c1O | 94%, 95%, -1%, not significant |  |  |  |  |  |  |  |  |
| NCCCN |  | 20/20 (100%), 11/20 (55%), 45%, p<0.01 | 14/18 (78%), 6/18 (33%), 58%, p<0.02 | 5/17 (29%), 3/17 (18%), 39%, not significant | 15/15 (100%), 18/18 (100%), 0%, not significant | 15/15 (100%), 18/18 (100%), 0%, not significant | 14/20 (70%), 6/20 (30%), 57%, p<0.05 | 14/19 (74%), 6/20 (30%), 59%, p<0.02 | 15/18 (83%), 8/18 (44%), 47%, p<0.05 |
